From patent US20080009418A1, “Selective Inhibitors” (Alchemia LTD., priority 2004, published 2008)

Assays:
Human Melanocortin (MC3) = target: T1, Human Melanocortin (MC3) (Homo sapiens, UniProt P41968); assay: Radioligand binding, human melanocortin MC3 membranes, FlashPlate, [125I]-NDP-αMSH; details: compound at 10 μM, [125I]-NDP-αMSH
T1 construct: purchased Perkin Elmer Biosignal
How it was run: (§1)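 Cloned human receptor membranes were coated onto FlashPlate wells and incubated with radioligand and compound (added from a 0.5 mM DMSO daughter plate) for 1 hour at room temperature in the dark. Scintillation counting gave percent inhibition, with DMSO defining total and reference ligand defining non-specific binding.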

Human κ-Opioid (KOP) = target: T2, Human κ-Opioid (KOP) (Homo sapiens, UniProt P41145); assay: Radioligand binding, human κ-opioid (KOP) membranes, filtration, [3H]-Diprenorphine; details: compound at 10 μM, [3H]-Diprenorphine
T2 construct: purchased Perkin Elmer Biosignal
T2 sequence (P41145 whole entry): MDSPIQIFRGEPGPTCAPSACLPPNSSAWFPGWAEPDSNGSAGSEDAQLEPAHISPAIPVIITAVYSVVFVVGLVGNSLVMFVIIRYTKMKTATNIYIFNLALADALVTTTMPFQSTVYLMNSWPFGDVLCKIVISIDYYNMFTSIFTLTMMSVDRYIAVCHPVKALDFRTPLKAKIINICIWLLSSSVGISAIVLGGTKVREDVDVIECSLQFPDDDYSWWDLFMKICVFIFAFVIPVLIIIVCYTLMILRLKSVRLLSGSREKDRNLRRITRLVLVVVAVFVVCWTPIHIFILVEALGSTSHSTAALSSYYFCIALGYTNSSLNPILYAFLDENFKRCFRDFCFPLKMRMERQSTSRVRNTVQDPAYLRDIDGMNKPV
How it was run: (§2)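 Membranes from cloned human receptors were incubated with compound and radioligand for 1 hour at room temperature. Bound ligand was collected on 0.3% PEI-soaked filters, washed with cold 50 mM Tris-HCl pH 7.4, and counted by scintillation. Percent inhibition was computed against DMSO totals and reference-ligand nonspecific wells.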

Human Melanocortin (MC4) = target: T3, Human Melanocortin (MC4) (Homo sapiens, UniProt P32245); assay: Radioligand binding, human melanocortin MC4 membranes, FlashPlate, [125I]-NDP-αMSH; details: compound at 10 μM, [125I]-NDP-αMSH
T3 construct: purchased Perkin Elmer Biosignal
T3 sequence (P32245 whole entry): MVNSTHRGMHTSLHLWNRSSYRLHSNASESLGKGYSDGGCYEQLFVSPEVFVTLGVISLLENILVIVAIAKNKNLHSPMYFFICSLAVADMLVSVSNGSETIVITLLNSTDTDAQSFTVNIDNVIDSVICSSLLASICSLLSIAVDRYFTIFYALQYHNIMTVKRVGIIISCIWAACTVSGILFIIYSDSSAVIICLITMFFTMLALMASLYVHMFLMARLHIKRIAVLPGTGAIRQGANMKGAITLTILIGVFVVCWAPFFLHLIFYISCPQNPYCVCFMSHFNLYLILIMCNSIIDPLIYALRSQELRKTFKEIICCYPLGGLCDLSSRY
How it was run: as §1

Human opioid (ORL1) = target: T4, Human opioid (ORL1) (Homo sapiens, UniProt P41146); assay: Radioligand binding, human opioid ORL1 membranes, FlashPlate, [125I]-Nociceptin; details: compound at 10 μM, [125I]-Nociceptin
T4 construct: purchased Perkin Elmer Biosignal
T4 sequence (P41146 whole entry): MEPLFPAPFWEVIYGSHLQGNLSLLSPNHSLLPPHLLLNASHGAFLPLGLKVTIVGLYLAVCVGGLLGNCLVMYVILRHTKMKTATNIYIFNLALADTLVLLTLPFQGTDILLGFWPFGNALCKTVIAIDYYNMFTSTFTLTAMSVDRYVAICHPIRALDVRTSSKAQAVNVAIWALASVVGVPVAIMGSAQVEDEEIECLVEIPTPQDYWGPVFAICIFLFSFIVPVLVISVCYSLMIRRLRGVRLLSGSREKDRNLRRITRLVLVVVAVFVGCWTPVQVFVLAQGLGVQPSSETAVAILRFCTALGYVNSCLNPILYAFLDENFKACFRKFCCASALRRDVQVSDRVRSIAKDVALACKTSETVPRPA
How it was run: as §1

Human μ-opioid (MOP) = target: T5, Human μ-opioid (MOP) (Homo sapiens, UniProt P35372); assay: Radioligand binding, human μ-opioid (MOP) membranes, FlashPlate, [3H]-Naloxone; details: compound at 10 μM, [3H]-Naloxone
T5 construct: purchased Perkin Elmer Biosignal
T5 sequence (P35372 whole entry): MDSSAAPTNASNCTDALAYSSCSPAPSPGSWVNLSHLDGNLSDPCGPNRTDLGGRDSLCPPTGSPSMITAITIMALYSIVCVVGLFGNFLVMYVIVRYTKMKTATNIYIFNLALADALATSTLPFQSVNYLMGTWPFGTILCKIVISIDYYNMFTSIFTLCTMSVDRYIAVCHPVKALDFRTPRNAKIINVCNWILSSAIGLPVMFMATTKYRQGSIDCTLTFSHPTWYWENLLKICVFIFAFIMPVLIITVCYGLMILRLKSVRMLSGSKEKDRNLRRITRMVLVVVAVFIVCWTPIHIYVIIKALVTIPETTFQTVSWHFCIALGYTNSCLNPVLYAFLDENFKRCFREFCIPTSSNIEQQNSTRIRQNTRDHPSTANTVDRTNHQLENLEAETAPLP
How it was run: as §1

Mouse urotensin (mUR2) = target: T6, Mouse urotensin (mUR2) (Mus musculus, UniProt Q8VIH9); assay: Radioligand binding, mouse urotensin mUR2 membranes, FlashPlate, [125I]-Urotensin II; details: compound at 10 μM, [125I]-Urotensin II
T6 construct: purchased Perkin Elmer Biosignal
T6 sequence (Q8VIH9 1-385): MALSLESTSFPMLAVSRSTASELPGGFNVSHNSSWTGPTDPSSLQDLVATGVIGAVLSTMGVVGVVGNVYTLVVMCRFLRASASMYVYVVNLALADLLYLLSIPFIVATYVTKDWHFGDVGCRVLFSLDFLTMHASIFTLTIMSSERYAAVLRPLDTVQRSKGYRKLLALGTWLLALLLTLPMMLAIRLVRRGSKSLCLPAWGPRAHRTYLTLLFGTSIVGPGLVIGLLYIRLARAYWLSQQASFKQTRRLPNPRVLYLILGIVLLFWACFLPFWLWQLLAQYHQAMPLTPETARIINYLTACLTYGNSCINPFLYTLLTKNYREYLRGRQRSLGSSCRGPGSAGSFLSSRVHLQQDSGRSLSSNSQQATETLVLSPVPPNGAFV
How it was run: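 Cloned mouse urotensin (mUR2) receptor membranes from Perkin Elmer Biosignal were immobilized in FlashPlate microplates using a proprietary coating. Each well got 19.5 μl buffer, then 0.5 μl of DMSO, reference ligand, or compound. Adding 5 μl of [125I]-Urotensin II, diluted to 5× final concentration in binding buffer, started binding. Plates were sealed with TopSeal-A and incubated 1 hour at room temperature in the dark. Wells were counted for 30 seconds each on a TopCount after a 60-second delay, and percentage inhibition was calculated.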

[1] = target: T7, Human melanin-concentrating hormone (MCH1) (Homo sapiens, UniProt Q99705); assay: Radioligand binding, human melanin-concentrating hormone MCH1 membranes, FlashPlate, [125I]-S36057; details: compound at 10 μM
T7 construct: purchased Perkin Elmer Biosignal
T7 sequence (Q99705 whole entry): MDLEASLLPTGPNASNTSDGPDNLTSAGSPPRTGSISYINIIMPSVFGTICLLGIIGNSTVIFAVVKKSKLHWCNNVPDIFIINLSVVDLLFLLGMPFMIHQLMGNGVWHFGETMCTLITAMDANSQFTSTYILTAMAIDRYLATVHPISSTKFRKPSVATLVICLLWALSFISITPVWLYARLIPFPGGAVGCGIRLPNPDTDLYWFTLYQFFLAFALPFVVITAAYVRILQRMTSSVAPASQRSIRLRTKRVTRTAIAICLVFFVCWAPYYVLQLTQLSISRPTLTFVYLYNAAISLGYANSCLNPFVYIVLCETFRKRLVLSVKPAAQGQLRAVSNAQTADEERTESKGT
How it was run: as §1

Human neurokinin (NK1) = target: T8, Human neurokinin (NK1) (Homo sapiens, UniProt P25103); assay: Radioligand binding, human neurokinin NK1 membranes, filtration, [125I]-Substance P; details: compound at 10 μM, [125I]-Substance P
T8 construct: purchased Perkin Elmer Biosignal
T8 sequence (P25103 whole entry): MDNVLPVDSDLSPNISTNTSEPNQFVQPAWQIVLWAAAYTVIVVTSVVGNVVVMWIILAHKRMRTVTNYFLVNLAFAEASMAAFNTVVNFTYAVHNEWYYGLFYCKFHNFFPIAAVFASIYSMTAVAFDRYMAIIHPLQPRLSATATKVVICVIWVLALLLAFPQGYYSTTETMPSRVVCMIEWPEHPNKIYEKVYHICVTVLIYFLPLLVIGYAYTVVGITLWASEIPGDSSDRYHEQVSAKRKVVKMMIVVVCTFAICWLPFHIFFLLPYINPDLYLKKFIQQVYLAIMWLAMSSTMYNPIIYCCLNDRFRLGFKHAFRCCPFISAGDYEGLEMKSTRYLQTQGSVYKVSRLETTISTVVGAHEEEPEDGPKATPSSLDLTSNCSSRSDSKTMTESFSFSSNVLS
How it was run: as §2

[2] = target: T9, Human neuropeptide Y (NPY-Y1) (Homo sapiens, UniProt P25929); assay: Radioligand binding, human neuropeptide Y NPY-Y1 membranes, FlashPlate, [125I]-PYY; details: compound at 10 μM, [125I]-PYY
T9 construct: purchased Perkin Elmer Biosignal
T9 sequence (P25929 1-384): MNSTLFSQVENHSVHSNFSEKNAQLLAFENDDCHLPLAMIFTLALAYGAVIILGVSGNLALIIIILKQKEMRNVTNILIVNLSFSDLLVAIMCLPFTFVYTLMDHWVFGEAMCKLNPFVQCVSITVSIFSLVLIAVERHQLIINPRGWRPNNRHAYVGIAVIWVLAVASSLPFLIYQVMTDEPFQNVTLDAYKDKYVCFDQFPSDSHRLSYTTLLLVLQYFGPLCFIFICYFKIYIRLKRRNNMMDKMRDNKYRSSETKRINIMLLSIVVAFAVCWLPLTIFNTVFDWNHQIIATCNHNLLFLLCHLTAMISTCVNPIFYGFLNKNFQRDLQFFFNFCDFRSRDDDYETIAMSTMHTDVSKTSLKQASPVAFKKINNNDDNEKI
How it was run: as §1

Human melanocortin (MC5) = target: T10, Human melanocortin (MC5) (Homo sapiens, UniProt P33032); assay: Radioligand binding, human melanocortin MC5 membranes, FlashPlate, [125I]-NDP-αMSH; details: compound at 10 μM, [125I]-NDP-αMSH
T10 construct: purchased Perkin Elmer Biosignal
T10 sequence (P33032 whole entry): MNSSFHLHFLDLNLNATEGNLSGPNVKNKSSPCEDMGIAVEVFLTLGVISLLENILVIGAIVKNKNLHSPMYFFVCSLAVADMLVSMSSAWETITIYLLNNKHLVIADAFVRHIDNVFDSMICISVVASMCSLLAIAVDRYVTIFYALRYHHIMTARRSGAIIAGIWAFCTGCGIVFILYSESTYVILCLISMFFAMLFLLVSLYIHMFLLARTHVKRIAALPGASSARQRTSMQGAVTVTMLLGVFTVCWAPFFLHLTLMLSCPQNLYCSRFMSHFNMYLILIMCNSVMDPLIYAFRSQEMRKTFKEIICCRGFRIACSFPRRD
How it was run: as §1

Human δ-opioid (DOP) = target: T11, Human δ-opioid (DOP) (Homo sapiens, UniProt P41143); assay: Radioligand binding, human δ-opioid (DOP) membranes, FlashPlate, [3H]-Bremazocine; details: compound at 10 μM, [3H]-Bremazocine
T11 construct: purchased Perkin Elmer Biosignal
T11 sequence (P41143 whole entry): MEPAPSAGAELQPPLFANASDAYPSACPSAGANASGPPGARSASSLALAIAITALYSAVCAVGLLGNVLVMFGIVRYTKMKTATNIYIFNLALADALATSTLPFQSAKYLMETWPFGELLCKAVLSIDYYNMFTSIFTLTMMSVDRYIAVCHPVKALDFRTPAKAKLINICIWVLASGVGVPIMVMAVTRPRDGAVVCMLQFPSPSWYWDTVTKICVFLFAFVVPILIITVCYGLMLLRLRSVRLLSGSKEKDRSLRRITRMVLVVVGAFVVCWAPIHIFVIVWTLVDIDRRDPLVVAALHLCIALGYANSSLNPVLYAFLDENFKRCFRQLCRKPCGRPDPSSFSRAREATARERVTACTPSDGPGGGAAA
How it was run: as §1

T1 sequence (P41968 whole entry): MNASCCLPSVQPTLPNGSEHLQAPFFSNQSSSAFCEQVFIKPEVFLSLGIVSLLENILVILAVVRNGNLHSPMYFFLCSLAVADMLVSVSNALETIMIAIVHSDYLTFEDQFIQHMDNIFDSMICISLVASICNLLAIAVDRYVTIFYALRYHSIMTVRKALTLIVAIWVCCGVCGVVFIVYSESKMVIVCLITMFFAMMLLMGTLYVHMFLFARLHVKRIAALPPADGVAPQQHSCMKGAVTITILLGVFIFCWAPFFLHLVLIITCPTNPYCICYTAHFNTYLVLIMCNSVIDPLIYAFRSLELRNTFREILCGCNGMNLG

Compound | A3 radioligand binding, percentage inhibition (Human Melanocortin (MC3)) | A2 radioligand binding, percentage inhibition (Human κ-Opioid (KOP)) | A4 radioligand binding, percentage inhibition (Human Melanocortin (MC4)) | A10 radioligand binding, percentage inhibition (Human opioid (ORL1)) | A7 radioligand binding, percentage inhibition (Human μ-opioid (MOP)) | A11 radioligand binding, percentage inhibition (Mouse urotensin (mUR2)) | A6 radioligand binding, percentage inhibition ([1]; [125I]-S36057) | A8 radioligand binding, percentage inhibition (Human neurokinin (NK1)) | A9 radioligand binding, percentage inhibition [2] | A5 radioligand binding, percentage inhibition (Human melanocortin (MC5)) | A1 radioligand binding, percentage inhibition (Human δ-opioid (DOP)) | also measured
CO[C@H]1[C@H](O)[C@@H](COCc2ccc3ccccc3c2)OC(OCc2ccc(Cl)cc2)[C@@H]1NC(=O)CNC(=N)N (some centres unmarked) [compound 97] | + (“+” indicates greater than 50% inhibition at 10 μM) | − (“−” indicates less than 50% inhibition at 10 μM) | + (“+” indicates greater than 50% inhibition at 10 μM) | + (“+” indicates greater than 50% inhibition at 10 μM) | − (“−” indicates less than 50% inhibition at 10 μM) | − (“−” indicates less than 50% inhibition at 10 μM) | − (“−” indicates less than 50% inhibition at 10 μM) | + (“+” indicates greater than 50% inhibition at 10 μM) | − (“−” indicates less than 50% inhibition at 10 μM) | + (“+” indicates greater than 50% inhibition at 10 μM) | − (“−” indicates less than 50% inhibition at 10 μM) | –
NCCCC(=O)NC1C(OCc2ccc(Cl)cc2)OC(COCc2ccccc2)C(O)C1OCc1ccc2ccccc2c1 (single isomer, unassigned) [compound 498] | – | – | – | – | – | – | – | – | – | – | – | A3: inhibition of radioligand binding, human melanocortin (MC3) (Human Melanocortin (MC3)): − (“−” indicates less than 50% inhibition at 10 μM); A2: inhibition of radioligand binding, human κ-opioid (KOP) (Human κ-Opioid (KOP)): − (“−” indicates less than 50% inhibition at 10 μM); A4: inhibition of radioligand binding, human melanocortin (MC4) (Human Melanocortin (MC4); 10 µM): + (“+” indicates greater than 50% inhibition at 10 μM); A10: inhibition of radioligand binding, human opioid (ORL1) (Human opioid (ORL1); 10 µM): + (“+” indicates greater than 50% inhibition at 10 μM); A7: inhibition of radioligand binding, human μ-opioid (MOP) (Human μ-opioid (MOP)): − (“−” indicates less than 50% inhibition at 10 μM); A11: inhibition of radioligand binding, mouse urotensin (mUR2) (Mouse urotensin (mUR2)): − (“−” indicates less than 50% inhibition at 10 μM); A6: inhibition of radioligand binding, human melanin-concentrating hormone (MCH1) ([1]; [125I]-S36057): − (“−” indicates less than 50% inhibition at 10 μM); A8: inhibition of radioligand binding, human neurokinin (NK1) (Human neurokinin (NK1)): + (“+” indicates greater than 50% inhibition at 10 μM); A9: inhibition of radioligand binding, human neuropeptide Y (NPY-Y1) [2]: − (“−” indicates less than 50% inhibition at 10 μM); A5: inhibition of radioligand binding, human melanocortin (MC5) (Human melanocortin (MC5)): + (“+” indicates greater than 50% inhibition at 10 μM); A1: inhibition of radioligand binding, human δ-opioid (DOP) (Human δ-opioid (DOP)): − (“−” indicates less than 50% inhibition at 10 μM)
CO[C@H]1[C@H](O)[C@@H](COCc2cccc(O)c2)OC(OCCc2ccccc2)[C@@H]1NC(=O)CCNC(=N)N (some centres unmarked) [compound 159] | − (“−” indicates less than 50% inhibition at 10 μM) | − (“−” indicates less than 50% inhibition at 10 μM) | − (“−” indicates less than 50% inhibition at 10 μM) | − (“−” indicates less than 50% inhibition at 10 μM) | − (“−” indicates less than 50% inhibition at 10 μM) | − (“−” indicates less than 50% inhibition at 10 μM) | − (“−” indicates less than 50% inhibition at 10 μM) | + (“+” indicates greater than 50% inhibition at 10 μM) | − (“−” indicates less than 50% inhibition at 10 μM) | − (“−” indicates less than 50% inhibition at 10 μM) | − (“−” indicates less than 50% inhibition at 10 μM) | –
N=C(N)NCC(=O)NC1C(OCc2ccc(-c3ccccc3)cc2)OC(COCc2ccccc2)C(O)C1OCc1ccc(-c2ccccc2)cc1 (centres unmarked) [compound 406] | – | – | – | – | – | – | – | – | – | – | – | A3: inhibition of radioligand binding (Human Melanocortin (MC3); human MC3 membranes): + (“+” indicates greater than 50% inhibition at 10 μM); A2: inhibition of radioligand binding (Human κ-Opioid (KOP); human KOP membranes): − (“−” indicates less than 50% inhibition at 10 μM); A4: inhibition of radioligand binding (Human Melanocortin (MC4); human MC4 membranes): + (“+” indicates greater than 50% inhibition at 10 μM); A10: inhibition of radioligand binding (Human opioid (ORL1); human ORL1 membranes): + (“+” indicates greater than 50% inhibition at 10 μM); A7: inhibition of radioligand binding (Human μ-opioid (MOP); human MOP membranes): − (“−” indicates less than 50% inhibition at 10 μM); A11: inhibition of radioligand binding (Mouse urotensin (mUR2); mouse mUR2 membranes): − (“−” indicates less than 50% inhibition at 10 μM); A6: inhibition of radioligand binding ([1]; [125I]-S36057, human MCH1 membranes): − (“−” indicates less than 50% inhibition at 10 μM); A8: inhibition of radioligand binding (Human neurokinin (NK1); human NK1 membranes): + (“+” indicates greater than 50% inhibition at 10 μM); A9: inhibition of radioligand binding ([2]; human NPY-Y1 membranes): − (“−” indicates less than 50% inhibition at 10 μM); A5: inhibition of radioligand binding (Human melanocortin (MC5); human MC5 membranes): + (“+” indicates greater than 50% inhibition at 10 μM); A1: inhibition of radioligand binding (Human δ-opioid (DOP); human DOP membranes): − (“−” indicates less than 50% inhibition at 10 μM)
